{
  "source": "patent US9340590B2",
  "about": "(priority 2011, dated 2016)",
  "key": {"hNav1.3": {"target": "hNav1.3 (Homo sapiens, UniProt Q9NY46)", "sequence (Q9NY46 whole entry, looked up)": "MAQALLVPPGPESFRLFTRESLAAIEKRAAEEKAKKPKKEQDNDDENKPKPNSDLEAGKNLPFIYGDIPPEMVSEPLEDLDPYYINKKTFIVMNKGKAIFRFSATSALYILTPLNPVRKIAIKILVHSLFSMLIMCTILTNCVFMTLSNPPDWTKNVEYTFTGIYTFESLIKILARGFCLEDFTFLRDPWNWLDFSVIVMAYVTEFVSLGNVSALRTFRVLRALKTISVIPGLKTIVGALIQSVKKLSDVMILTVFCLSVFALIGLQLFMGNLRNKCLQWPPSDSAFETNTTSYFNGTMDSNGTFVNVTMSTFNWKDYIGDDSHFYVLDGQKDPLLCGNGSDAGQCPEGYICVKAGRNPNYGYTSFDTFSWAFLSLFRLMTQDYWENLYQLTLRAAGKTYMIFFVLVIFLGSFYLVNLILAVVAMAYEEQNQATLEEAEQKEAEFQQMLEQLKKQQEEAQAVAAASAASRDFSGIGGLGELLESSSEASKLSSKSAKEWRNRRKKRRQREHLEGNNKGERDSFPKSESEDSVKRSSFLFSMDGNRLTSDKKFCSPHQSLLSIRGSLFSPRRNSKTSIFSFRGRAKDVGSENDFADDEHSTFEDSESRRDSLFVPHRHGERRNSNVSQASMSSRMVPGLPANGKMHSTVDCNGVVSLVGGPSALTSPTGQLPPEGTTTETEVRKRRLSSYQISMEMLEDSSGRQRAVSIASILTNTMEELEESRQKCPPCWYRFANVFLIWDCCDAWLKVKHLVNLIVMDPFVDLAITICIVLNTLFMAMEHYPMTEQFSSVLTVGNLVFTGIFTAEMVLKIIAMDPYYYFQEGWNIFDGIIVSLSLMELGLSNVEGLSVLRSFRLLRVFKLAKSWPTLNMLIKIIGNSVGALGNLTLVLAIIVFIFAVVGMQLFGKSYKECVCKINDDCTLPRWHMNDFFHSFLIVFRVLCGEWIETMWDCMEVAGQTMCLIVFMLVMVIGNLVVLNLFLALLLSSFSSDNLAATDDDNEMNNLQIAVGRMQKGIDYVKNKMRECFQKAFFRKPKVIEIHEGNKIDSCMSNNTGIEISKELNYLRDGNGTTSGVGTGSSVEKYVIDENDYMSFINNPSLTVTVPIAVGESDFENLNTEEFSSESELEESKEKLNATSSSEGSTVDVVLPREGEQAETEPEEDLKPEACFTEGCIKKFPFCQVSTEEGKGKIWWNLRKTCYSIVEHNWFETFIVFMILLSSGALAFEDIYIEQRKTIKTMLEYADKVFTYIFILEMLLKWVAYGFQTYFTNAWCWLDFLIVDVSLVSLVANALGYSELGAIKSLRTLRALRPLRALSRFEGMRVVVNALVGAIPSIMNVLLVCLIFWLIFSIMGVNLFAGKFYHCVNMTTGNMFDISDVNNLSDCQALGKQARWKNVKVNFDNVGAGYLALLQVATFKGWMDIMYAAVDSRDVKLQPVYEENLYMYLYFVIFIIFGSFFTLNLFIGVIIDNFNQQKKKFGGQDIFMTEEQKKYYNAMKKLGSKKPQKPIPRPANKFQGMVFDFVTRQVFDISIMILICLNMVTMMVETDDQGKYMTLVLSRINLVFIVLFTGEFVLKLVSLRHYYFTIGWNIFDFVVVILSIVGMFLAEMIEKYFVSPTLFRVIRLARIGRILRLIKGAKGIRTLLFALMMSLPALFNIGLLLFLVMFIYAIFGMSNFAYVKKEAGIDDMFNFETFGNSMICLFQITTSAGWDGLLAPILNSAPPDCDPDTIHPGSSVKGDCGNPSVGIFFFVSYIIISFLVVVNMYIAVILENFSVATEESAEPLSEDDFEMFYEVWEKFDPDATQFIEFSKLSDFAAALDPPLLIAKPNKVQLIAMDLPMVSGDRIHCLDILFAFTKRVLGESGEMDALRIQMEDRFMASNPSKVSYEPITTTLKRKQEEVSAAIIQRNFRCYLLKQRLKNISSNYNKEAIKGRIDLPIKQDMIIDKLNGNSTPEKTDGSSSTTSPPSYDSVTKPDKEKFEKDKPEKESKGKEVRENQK", "experiment": "cell-based", "conditions": "IonWorks Quattro, read-out: IWQ Use Nav1.3"}, "hNav1.5": {"target": "hNav1.5 (Homo sapiens, UniProt Q14524)", "sequence (Q14524 whole entry, looked up)": "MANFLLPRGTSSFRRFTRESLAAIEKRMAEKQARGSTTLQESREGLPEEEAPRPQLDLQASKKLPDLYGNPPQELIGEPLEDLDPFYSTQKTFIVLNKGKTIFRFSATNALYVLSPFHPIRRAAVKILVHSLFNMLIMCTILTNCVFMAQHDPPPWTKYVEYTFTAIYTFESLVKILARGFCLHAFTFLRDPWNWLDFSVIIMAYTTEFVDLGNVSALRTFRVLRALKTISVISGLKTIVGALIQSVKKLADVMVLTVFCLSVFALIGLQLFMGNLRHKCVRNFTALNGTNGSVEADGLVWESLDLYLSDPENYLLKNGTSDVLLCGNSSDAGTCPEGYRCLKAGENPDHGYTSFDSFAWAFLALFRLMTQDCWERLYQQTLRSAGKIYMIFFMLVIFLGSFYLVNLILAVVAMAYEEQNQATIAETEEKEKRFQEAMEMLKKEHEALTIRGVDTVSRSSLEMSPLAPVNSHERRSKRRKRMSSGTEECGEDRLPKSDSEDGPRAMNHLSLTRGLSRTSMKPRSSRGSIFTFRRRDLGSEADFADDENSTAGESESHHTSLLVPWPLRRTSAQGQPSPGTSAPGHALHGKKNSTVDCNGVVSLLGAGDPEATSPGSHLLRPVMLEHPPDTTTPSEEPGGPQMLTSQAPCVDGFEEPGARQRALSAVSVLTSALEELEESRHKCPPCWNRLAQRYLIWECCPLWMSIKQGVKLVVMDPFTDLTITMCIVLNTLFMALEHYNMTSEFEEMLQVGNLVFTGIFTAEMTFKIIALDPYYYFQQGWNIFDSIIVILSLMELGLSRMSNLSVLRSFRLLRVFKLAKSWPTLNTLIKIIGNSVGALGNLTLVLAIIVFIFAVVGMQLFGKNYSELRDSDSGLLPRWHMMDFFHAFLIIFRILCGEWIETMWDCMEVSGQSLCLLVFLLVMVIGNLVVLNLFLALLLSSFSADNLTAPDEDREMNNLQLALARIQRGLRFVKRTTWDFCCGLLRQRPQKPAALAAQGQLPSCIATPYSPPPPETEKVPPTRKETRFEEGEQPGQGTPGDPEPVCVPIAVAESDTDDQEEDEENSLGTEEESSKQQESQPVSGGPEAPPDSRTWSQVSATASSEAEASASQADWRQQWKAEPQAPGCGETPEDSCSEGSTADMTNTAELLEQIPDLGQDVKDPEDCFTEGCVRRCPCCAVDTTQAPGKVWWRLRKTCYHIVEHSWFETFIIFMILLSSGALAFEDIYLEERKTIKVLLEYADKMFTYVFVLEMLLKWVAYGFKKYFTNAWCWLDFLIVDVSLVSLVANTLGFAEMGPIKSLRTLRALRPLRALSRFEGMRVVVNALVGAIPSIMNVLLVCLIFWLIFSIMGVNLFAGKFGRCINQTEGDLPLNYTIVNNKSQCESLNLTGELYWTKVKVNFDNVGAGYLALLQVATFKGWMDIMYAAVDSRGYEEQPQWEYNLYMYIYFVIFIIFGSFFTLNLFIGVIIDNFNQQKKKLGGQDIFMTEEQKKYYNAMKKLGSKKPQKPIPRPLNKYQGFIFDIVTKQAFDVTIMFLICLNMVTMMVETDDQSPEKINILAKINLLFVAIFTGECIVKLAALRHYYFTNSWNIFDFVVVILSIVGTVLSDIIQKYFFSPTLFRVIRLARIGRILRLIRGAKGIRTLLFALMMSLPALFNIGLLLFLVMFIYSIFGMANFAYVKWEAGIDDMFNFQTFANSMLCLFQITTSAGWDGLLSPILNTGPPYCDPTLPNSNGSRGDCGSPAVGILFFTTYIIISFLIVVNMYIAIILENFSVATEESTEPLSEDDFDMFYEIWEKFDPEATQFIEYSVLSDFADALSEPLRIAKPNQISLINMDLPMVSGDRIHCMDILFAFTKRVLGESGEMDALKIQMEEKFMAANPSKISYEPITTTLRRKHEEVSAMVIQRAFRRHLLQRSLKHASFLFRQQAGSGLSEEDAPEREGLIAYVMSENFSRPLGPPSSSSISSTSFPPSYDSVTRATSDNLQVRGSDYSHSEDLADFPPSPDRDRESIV", "experiment": "cell-based"}, "[1]": {"conditions": "IonWorks Quattro, Use, read-out: IWQ Use Nav1.5"}},
  "note": "Where two headings read alike, the source gives them in different places. Positions of bridges follow the written chain, without caps; N, C: chain ends. Non-standard residues stand in square brackets, D forms with d. Residues, ends and D or L forms follow the SMILES beside them. 1Nal = N[C@@H](Cc1cccc2ccccc12)C(=O)O",
  "data": [
    {"smiles": "CC[C@H](C)[C@@H]1NC(=O)[C@@H]2CSSC[C@@H]3NC(=O)[C@H](C(C)C)NC(=O)[C@H](CC(C)C)NC(=O)[C@H](CC(N)=O)NC(=O)[C@@H]4CCCN4C(=O)[C@H](CCCNC(=N)N)NC(=O)[C@H](CSSC[C@H](NC(=O)[C@@H](N)CC(=O)O)C(=O)N[C@@H](CC(C)C)C(=O)NCC(=O)N[C@@H](Cc4ccccc4)C(=O)N[C@@H](CCSC)C(=O)N[C@@H](CCCNC(=N)N)C(=O)N[C@@H](CCCCN)C(=O)N2)NC(=O)[C@H](CSSC[C@@H](C(=O)N[C@@H](CCCCN)C(=O)N[C@@H](Cc2ccc(O)cc2)C(=O)N[C@H](C(=O)N[C@@H](Cc2ccccc2)C(N)=O)C(C)C)NC(=O)[C@H](Cc2c[nH]c4ccccc24)NC(=O)[C@H](CCCCN)NC(=O)[C@H](Cc2cnc[nH]2)NC(=O)[C@H]([C@@H](C)O)NC(=O)[C@H](CCCNC(=N)N)NC(=O)[C@H](CO)NC3=O)NC(=O)[C@H](CCCCN)NC(=O)[C@H](CC(=O)O)NC(=O)[C@H](CCCCN)NC(=O)[C@H](CC(=O)O)NC(=O)[C@@H]2CCCN2C1=O", "note": "[compound 48] (H-DCLGFMRKCIPDKDKCCRPNLVCSRTHKWCKYVF-NH2; disulfide 2-17, 9-23, 16-30)", "values": [
      {"measurement": "IC50", "setting": "hNav1.3; Use", "result": 0.13, "unit": "µM"},
      {"measurement": "IC50", "setting": "hNav1.5; [1]", "result": 9.72, "unit": "µM"}
    ]},
    {"smiles": "CC[C@H](C)[C@@H]1NC(=O)[C@@H]2CSSC[C@@H]3NC(=O)[C@H](C(C)C)NC(=O)[C@H](CC(C)C)NC(=O)[C@H](CC(N)=O)NC(=O)[C@@H]4CCCN4C(=O)[C@H](CCCNC(=N)N)NC(=O)[C@H](CSSC[C@H](NC(=O)[C@@H](N)CC(=O)O)C(=O)N[C@@H](CC(C)C)C(=O)NCC(=O)N[C@@H](Cc4ccccc4)C(=O)N[C@@H](CCSC)C(=O)N[C@@H](CCCNC(=N)N)C(=O)N[C@@H](CCCCN)C(=O)N2)NC(=O)[C@H](CSSC[C@@H](C(=O)N[C@@H](CCCCN)C(=O)N[C@@H](Cc2cccc4ccccc24)C(=O)N[C@H](C(=O)N[C@@H](Cc2ccccc2)C(N)=O)C(C)C)NC(=O)[C@H](Cc2c[nH]c4ccccc24)NC(=O)[C@H](CCCCN)NC(=O)[C@H](Cc2cnc[nH]2)NC(=O)[C@H]([C@@H](C)O)NC(=O)[C@H](CCCNC(=N)N)NC(=O)[C@H](CO)NC3=O)NC(=O)[C@H](CCCCN)NC(=O)[C@H](CC(=O)O)NC(=O)[C@H](CC(N)=O)NC(=O)[C@H](CC(=O)O)NC(=O)[C@@H]2CCCN2C1=O", "note": "[compound 167] (H-DCLGFMRKCIPDNDKCCRPNLVCSRTHKWCK[1Nal]VF-NH2; disulfide 2-17, 9-23, 16-30)", "values": [
      {"measurement": "IC50", "setting": "hNav1.3; Table 25, use, […]", "result": 0.001, "unit": "µM"},
      {"measurement": "IC50", "setting": "hNav1.5; IWQ Use Nav1.5 (μM)", "result": 3.96, "unit": "µM"}
    ]},
    {"smiles": "CC[C@H](C)[C@@H]1NC(=O)[C@@H]2CSSC[C@@H]3NC(=O)[C@H](C(C)C)NC(=O)[C@H](CC(C)C)NC(=O)[C@H](CC(N)=O)NC(=O)[C@@H]4CCCN4C(=O)[C@H](CCCNC(=N)N)NC(=O)[C@H](CSSC[C@H](NC(=O)[C@@H](N)CC(=O)O)C(=O)N[C@@H](CC(C)C)C(=O)NCC(=O)N[C@@H](Cc4ccccc4)C(=O)N[C@@H](CCSC)C(=O)N[C@@H](CCCNC(=N)N)C(=O)N[C@@H](CCCCN)C(=O)N2)NC(=O)[C@H](CSSC[C@@H](C(=O)N[C@@H](CCCCN)C(=O)N[C@@H](Cc2ccc(O)cc2)C(=O)N[C@@H](CCCNC(=N)N)C(=O)N[C@@H](Cc2ccccc2)C(N)=O)NC(=O)[C@H](Cc2c[nH]c4ccccc24)NC(=O)[C@H](CCCCN)NC(=O)[C@H](Cc2cnc[nH]2)NC(=O)[C@H]([C@@H](C)O)NC(=O)[C@H](CCCNC(=N)N)NC(=O)[C@H](CO)NC3=O)NC(=O)[C@H](CCCCN)NC(=O)[C@H](CC(=O)O)NC(=O)[C@H](CC(N)=O)NC(=O)[C@H](CC(=O)O)NC(=O)[C@@H]2CCCN2C1=O", "note": "[compound 74] (H-DCLGFMRKCIPDNDKCCRPNLVCSRTHKWCKYRF-NH2; disulfide 2-17, 9-23, 16-30)", "values": [
      {"measurement": "IC50", "setting": "hNav1.3; Table 26, use, […]", "result": 0.05, "unit": "µM"},
      {"measurement": "IC50", "setting": "hNav1.5; Table 26, IonWorks Quattro, use, […], read-out: IWQ Use Nav1.5", "result": 9.55, "unit": "µM"}
    ]},
    {"smiles": "CC[C@H](C)[C@@H]1NC(=O)[C@@H]2CSSC[C@@H]3NC(=O)[C@H](C(C)C)NC(=O)[C@H](CC(C)C)NC(=O)[C@H](CC(N)=O)NC(=O)[C@@H]4CCCN4C(=O)[C@H](CCCNC(=N)N)NC(=O)[C@H](CSSC[C@H](NC(=O)[C@@H](N)CC(=O)O)C(=O)N[C@@H](CC(C)C)C(=O)NCC(=O)N[C@@H](Cc4ccccc4)C(=O)N[C@@H](CCSC)C(=O)N[C@@H](CCCNC(=N)N)C(=O)N[C@@H](CCCCN)C(=O)N2)NC(=O)[C@H](CSSC[C@@H](C(=O)N[C@@H](CCCCN)C(=O)N[C@@H](Cc2ccc(O)cc2)C(N)=O)NC(=O)[C@H](Cc2c[nH]c4ccccc24)NC(=O)[C@H](CCCCN)NC(=O)[C@H](Cc2cnc[nH]2)NC(=O)[C@H]([C@@H](C)O)NC(=O)[C@H](CCCNC(=N)N)NC(=O)[C@H](CO)NC3=O)NC(=O)[C@H](CCCCN)NC(=O)[C@H](CC(=O)O)NC(=O)[C@H](CC(N)=O)NC(=O)[C@H](CC(=O)O)NC(=O)[C@@H]2CCCN2C1=O", "note": "[compound 416] (H-DCLGFMRKCIPDNDKCCRPNLVCSRTHKWCKY-NH2; disulfide 2-17, 9-23, 16-30)", "values": [
      {"measurement": "IC50", "setting": "hNav1.3; use-dependent, […]", "result": 0.88, "unit": "µM"},
      {"measurement": "IC50", "setting": "hNav1.5; IonWorks Quattro, use-dependent, […], read-out: IWQ Use Nav1.5", "result": 8.64, "unit": "µM"}
    ]},
    {"smiles": "CC[C@H](C)[C@@H]1NC(=O)[C@@H]2CSSC[C@@H]3NC(=O)[C@H](C(C)C)NC(=O)[C@H](CC(C)C)NC(=O)[C@H](CC(N)=O)NC(=O)[C@@H]4CCCN4C(=O)[C@H](CCCNC(=N)N)NC(=O)[C@H](CSSC[C@H](NC(=O)[C@@H](N)CC(=O)O)C(=O)N[C@@H](CC(C)C)C(=O)NCC(=O)N[C@@H](Cc4ccccc4)C(=O)N[C@@H](CCSC)C(=O)N[C@@H](CCCNC(=N)N)C(=O)N[C@@H](CCCCN)C(=O)N2)NC(=O)[C@H](CSSC[C@@H](C(=O)N[C@@H](CCCCN)C(=O)N[C@@H](Cc2ccc(O)cc2)C(=O)N[C@H](C(=O)N[C@@H](Cc2ccccc2)C(N)=O)C(C)C)NC(=O)[C@H](Cc2ccc(O)cc2)NC(=O)[C@H](CCCCN)NC(=O)[C@H](Cc2c[nH]cn2)NC(=O)[C@H]([C@@H](C)O)NC(=O)[C@H](CCCNC(=N)N)NC(=O)[C@H](CO)NC3=O)NC(=O)[C@H](CCCCN)NC(=O)[C@H](CC(=O)O)NC(=O)[C@H](CC(N)=O)NC(=O)[C@H](CC(=O)O)NC(=O)[C@@H]2CCCN2C1=O", "note": "[compound 113] (H-DCLGFMRKCIPDNDKCCRPNLVCSRTHKYCKYVF-NH2; disulfide 2-17, 9-23, 16-30)", "values": [
      {"measurement": "IC50", "setting": "hNav1.3; Table 24, use, […]", "result": 4.03, "unit": "µM"},
      {"measurement": "IC50", "setting": "hNav1.5; Table 24, IonWorks Quattro, use, […], read-out: IWQ Use Nav1.5", "result": 9.49, "unit": "µM"}
    ]},
    {"smiles": "CC[C@H](C)[C@@H]1NC(=O)[C@@H]2CSSC[C@@H]3NC(=O)[C@H](C(C)C)NC(=O)[C@H](CC(C)C)NC(=O)[C@H](CC(N)=O)NC(=O)[C@@H]4CCCN4C(=O)[C@H](CCC(=O)O)NC(=O)[C@H](CSSC[C@H](NC(=O)[C@@H](N)CC(=O)O)C(=O)N[C@@H](CC(C)C)C(=O)NCC(=O)N[C@@H](Cc4ccccc4)C(=O)N[C@@H](CCSC)C(=O)N[C@@H](CCCNC(=N)N)C(=O)N[C@@H](CCCCN)C(=O)N2)NC(=O)[C@H](CSSC[C@@H](C(=O)N[C@@H](CCCCN)C(=O)N[C@@H](Cc2ccc(O)cc2)C(=O)N[C@H](C(=O)N[C@@H](Cc2ccccc2)C(N)=O)C(C)C)NC(=O)[C@H](Cc2c[nH]c4ccccc24)NC(=O)[C@H](CCCCN)NC(=O)[C@H](Cc2cnc[nH]2)NC(=O)[C@H]([C@@H](C)O)NC(=O)[C@H](CCCNC(=N)N)NC(=O)[C@H](CO)NC3=O)NC(=O)[C@H](CCCCN)NC(=O)[C@H](CC(=O)O)NC(=O)[C@H](CC(N)=O)NC(=O)[C@H](CC(=O)O)NC(=O)[C@@H]2CCCN2C1=O", "note": "[compound 148] (H-DCLGFMRKCIPDNDKCCEPNLVCSRTHKWCKYVF-NH2; disulfide 2-17, 9-23, 16-30)", "values": [
      {"measurement": "IC50", "setting": "hNav1.3; Use", "result": 0.21, "unit": "µM"},
      {"measurement": "IC50", "setting": "hNav1.5; [1]", "result": 14.6, "unit": "µM"}
    ]},
    {"smiles": "CC[C@H](C)[C@@H]1NC(=O)[C@@H]2CSSC[C@@H]3NC(=O)[C@H](C(C)C)NC(=O)[C@H](CC(C)C)NC(=O)[C@H](CC(N)=O)NC(=O)[C@@H]4CCCN4C(=O)[C@H](CCCNC(=N)N)NC(=O)[C@H](CSSC[C@H](NC(=O)[C@@H](N)CC(=O)O)C(=O)N[C@@H](CC(C)C)C(=O)NCC(=O)N[C@@H](Cc4ccccc4)C(=O)N[C@@H](CCSC)C(=O)N[C@@H](CCCNC(=N)N)C(=O)N[C@@H](CCCCN)C(=O)N2)NC(=O)[C@H](CSSC[C@@H](C(=O)N[C@@H](CCCCN)C(=O)N[C@@H](Cc2ccc(O)cc2)C(=O)N[C@H](C(=O)N[C@@H](Cc2ccccc2)C(N)=O)C(C)C)NC(=O)[C@H](Cc2c[nH]c4ccccc24)NC(=O)[C@H](CCCCN)NC(=O)[C@H](Cc2cnc[nH]2)NC(=O)[C@H]([C@@H](C)O)NC(=O)[C@H](CCCCN)NC(=O)[C@H](CO)NC3=O)NC(=O)[C@H](CCCCN)NC(=O)[C@H](CC(=O)O)NC(=O)[C@H](CC(N)=O)NC(=O)[C@H](CC(=O)O)NC(=O)[C@@H]2CCCN2C1=O", "note": "[compound 53] (H-DCLGFMRKCIPDNDKCCRPNLVCSKTHKWCKYVF-NH2; disulfide 2-17, 9-23, 16-30)", "values": [
      {"measurement": "IC50", "setting": "hNav1.3; Use", "result": 0.24, "unit": "µM"},
      {"measurement": "IC50", "setting": "hNav1.5; IWQ Use Nav1.5 (μM)", "result": 15.2, "unit": "µM"}
    ]},
    {"smiles": "CC[C@H](C)[C@@H]1NC(=O)[C@@H]2CSSC[C@@H]3NC(=O)[C@H](C(C)C)NC(=O)[C@H](CC(C)C)NC(=O)[C@H](CC(N)=O)NC(=O)[C@@H]4CCCN4C(=O)[C@H](CCCNC(=N)N)NC(=O)[C@H](CSSC[C@H](NC(=O)[C@@H](N)CC(=O)O)C(=O)N[C@@H](CC(C)C)C(=O)NCC(=O)N[C@@H](Cc4ccccc4)C(=O)N[C@@H](CCSC)C(=O)N[C@@H](CCCNC(=N)N)C(=O)N[C@@H](CCCCN)C(=O)N2)NC(=O)[C@H](CSSC[C@@H](C(=O)N[C@@H](CCCCN)C(=O)N[C@@H](Cc2ccc(O)cc2)C(=O)N[C@H](C(=O)N[C@@H](Cc2ccccc2)C(N)=O)C(C)C)NC(=O)[C@H](Cc2c[nH]c4ccccc24)NC(=O)[C@H](CCCCN)NC(=O)[C@H](Cc2cnc[nH]2)NC(=O)[C@H]([C@@H](C)O)NC(=O)[C@H](CCCNC(=N)N)NC(=O)[C@H](C)NC3=O)NC(=O)[C@H](CCCCN)NC(=O)[C@H](CC(=O)O)NC(=O)[C@H](CC(N)=O)NC(=O)[C@H](CC(=O)O)NC(=O)[C@@H]2CCCN2C1=O", "note": "[compound 142] (H-DCLGFMRKCIPDNDKCCRPNLVCARTHKWCKYVF-NH2; disulfide 2-17, 9-23, 16-30)", "values": [
      {"measurement": "IC50", "setting": "hNav1.3; Use", "result": 0.25, "unit": "µM"},
      {"measurement": "IC50", "setting": "hNav1.5; [1]", "result": 8.2, "unit": "µM"}
    ]}
  ]
}
